Measurements reported in patent publication EP2246329A1, “4(1H)-pyridinone derivatives and their use as antimalaria agents” (Glaxo Group Limited, priority 2009, dated 2010).

The compounds below were run on Plasmodium falciparum (assay: In vitro anti-malarial activity against Plasmodium falciparum, IC50 assay / [3H]-Hypoxanthine incorporation assay). Conditions: Erythrocyte; Plasmodium falciparum strains in parasitized red blood cells, [3H]-hypoxanthine incorporation, 48 hours at 37°C.
Assay type: cell-based
Experimental: The compounds of this invention may be tested in one of several biological assays to determine the concentration of compound which is required to have a given pharmacological effect. In vitro anti-malarial activity against Plasmodium falciparum. IC50 assay / [^3H]-Hypoxanthine assay
The culture medium comprised RPMI 1640 with 25mM HEPES, sodium bicarbonate and glutamine (GIBCO™ cat. ref.: 52400), supplemented with 10% of pooled human sera AB (Irvine Scientific, cat. ref.: 5009) and HT supplement (0.15 mM hypoxanthine and 24 µM thymidine), (GIBCO™ cat. ref.: 41065). Human sera were decomplemented 30 min. at 56°C, aliquoted and stored frozen at -20°C until use in this culture medium.
This culture medium ("complete medium") was usually prepared fresh just before use and pre-warmed to 37°C.
Red blood cells O+ stock suspensions were prepared from whole blood bags coming from incomplete blood donation, provided by the Spanish Red Cross (<25 days after sampling). This "whole blood" was aliquoted and stored at 4°C.
To prepare red blood cells for the assay, the whole blood was centrifuged and washed 3 times with RPMI without serum. The upper phase, containing white blood cells was removed. The washed red blood cells were kept as a 50 % suspension in complete medium. The prepared cells were stored at 4°C and were employed in the assay at any time up to 4 days after preparation.
Test compounds were dissolved at 2 mg/ml in 100% DMSO on the day of the assay. If necessary, complete dissolution was achieved by gentle heating (the mixture was heated at a temperature <37°C) and sonication (sonication bath).
For IC50 determinations, 10 serial 2-fold dilutions were prepared in complete medium in the presence of a constant amount of DMSO. Any obvious signs of insolubility of the stock solutions in 100% DMSO or precipitation when these solutions were diluted in assay media, were recorded.
Plasmodium falciparum strains were maintained in complete medium at an hematocrit of 5% in continuous culture using a method adapted from that published by Trager and Jensen(1) and Traeger(2).
The parasitemia was calculated by counting the percentage of parasitized erythrocytes by optical microscopy. Thin films of blood were made every day from each culture flask, fixed with methanol and stained for 10 min. in Giemsa (Merck, cat. ref.: 1.09204) at 10 % in buffered water pH 7.2. The glass slides were observed and counted with an optical microscope (Nikon, Eclipse E200) equipped with a 100 X immersion oil objective.
The culture was maintained at an hematocrit of 5%, with a daily change of medium and was diluted when parasitemia had reached about 5%.
[^3H] Hypoxanthine incorporation assay was conducted using a method adapted from Desjardins et al. (3). The assays were performed in 96 wells flat bottom microplates. • 1. Serial dilutions of the test compounds (50µl of a 5X solution / well) were deposited in duplicate. Compounds of the invention were tested in this assay. Chloroquine and Atovaquone were used as control compounds for each assay. • 2. […] [^3H]-Hypoxanthine (Amersham Biosciences, cat. ref.: TRK74) was added extemporaneously to the inoculum suspension at a concentration of 1 µCi/ml (equating to […]). 200 µl of the resulting suspension was distributed into each well (other than the control well H12 described below) leading to a final volume of 250 µl per well, at 2% of hematocrit and 0.5 % of parasitemia / well. • 4. […]

How did the IC50 turn out when `Cc1[nH]c(C)c(-c2ccc(-c3ccc(CN4CCC(c5ccc(OC(F)(F)F)cc5)CC4)cc3)nc2)c(=O)c1Cl.Cl` [Example 64, 5-chloro-2,6-dimethyl-6'-{4-[(4-{4-[(trifluoromethyl)oxy]phenyl}-1-piperidinyl)methyl]phenyl}-3,3'-bipyridin-4(1H)-one hydrochloride] was run?
The IC50 was under 0.125 µg/mL.

With `Cc1[nH]c(C)c(-c2ccc(C(F)(F)CN3CCC(C(F)(F)F)CC3)nc2)c(=O)c1Cl` [Example 67, 5-chloro-6'-{1,1-difluoro-2-[4-(trifluoromethyl)-1-piperidinyl]ethyl}-2,6-dimethyl-3,3'-bipyridin-4(1H)-one] as the compound, how does the IC50 read?
The IC50 was under 0.125 µg/mL.

How did the IC50 turn out when `Cc1[nH]c(C)c(-c2ccc(OCCN3CCC(C(F)(F)F)CC3)nc2)c(=O)c1Cl.Cl` [Example 68, 5-chloro-2,6-dimethyl-6'-({2-[4-(trifluoromethyl)-1-piperidinyl]ethyl}oxy)-3,3'-bipyridin-4(1H)-one hydrochloride] was run?
Its IC50 is 0.21 µg/mL.
